Measurements published in ChEMBL document CHEMBL1156090, “Design and synthesis of cell potent BACE-1 inhibitors: structure-activity relationship of P1' substituents” (Bioorg Med Chem Lett, 2009).

How the values were obtained:
HEK293 = experiment: […] HEK293 cells expressing swedish-mutant APP FAD isoform; type: functional, Homo sapiens; conditions: read-out: ED50 (the source's name)
Beta-secretase 1 = Beta-secretase 1 (Homo sapiens, UniProt P56817)
Description: Inhibition of recombinant BACE1 expressed in Escherichia coli after 3 hrs by oregon green based fluorescence polarization assay

Cathepsin D = Cathepsin D (Homo sapiens, UniProt P07339)
Cathepsin D, sequence (P07339 65-162 limits assumed): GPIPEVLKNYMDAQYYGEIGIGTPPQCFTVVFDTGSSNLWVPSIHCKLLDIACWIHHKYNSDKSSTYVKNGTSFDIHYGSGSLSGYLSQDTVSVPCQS
Cathepsin D, sequence (P07339 169-412 limits assumed): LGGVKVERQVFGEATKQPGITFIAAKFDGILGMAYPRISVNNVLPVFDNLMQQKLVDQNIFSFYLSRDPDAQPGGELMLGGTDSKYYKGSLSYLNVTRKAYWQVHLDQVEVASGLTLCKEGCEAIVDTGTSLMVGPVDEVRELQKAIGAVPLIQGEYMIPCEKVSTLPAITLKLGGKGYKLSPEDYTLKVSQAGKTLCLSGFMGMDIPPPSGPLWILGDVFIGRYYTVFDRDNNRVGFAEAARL
Description: Inhibition of cathepsin D assessed as reduction in polarization after 110 mins by oregon green based fluorescence polarization assay

[1] = Apparent permeability from apical side to basolateral side in MDCK2 cells at 5 uM after 120 mins by LC/MS/MS; type: ADME, cell-based, Canis lupus familiaris, MDCK-II; conditions: dog, MDCK

Beta-secretase 1, sequence (P56817 whole entry): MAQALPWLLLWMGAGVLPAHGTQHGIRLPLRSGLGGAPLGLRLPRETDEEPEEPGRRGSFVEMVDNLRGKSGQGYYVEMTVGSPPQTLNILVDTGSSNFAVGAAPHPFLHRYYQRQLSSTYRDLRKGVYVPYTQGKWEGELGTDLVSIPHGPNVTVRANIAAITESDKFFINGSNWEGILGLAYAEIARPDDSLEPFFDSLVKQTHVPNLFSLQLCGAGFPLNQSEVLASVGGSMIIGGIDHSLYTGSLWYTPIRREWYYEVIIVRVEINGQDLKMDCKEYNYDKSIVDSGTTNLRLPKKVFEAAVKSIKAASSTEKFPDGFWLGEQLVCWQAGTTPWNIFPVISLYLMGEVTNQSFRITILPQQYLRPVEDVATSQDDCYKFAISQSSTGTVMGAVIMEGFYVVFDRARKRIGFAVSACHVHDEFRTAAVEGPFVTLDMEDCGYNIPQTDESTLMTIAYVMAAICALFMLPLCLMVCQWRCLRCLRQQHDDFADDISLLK

Row | SMILES | EC50 (HEK293; Homo sapiens, HEK293) [nM] | IC50 (Beta-secretase 1) [nM] | IC50 (Cathepsin D) [nM] | Papp A→B at 2 h, 5 µM [1] [×10⁻⁶ cm/s] | EC50 (HEK293) [nM]
1 | CC(=O)N[C@@H](Cc1cc(F)cc(F)c1)[C@H](O)CN[C@@]1(c2cccc(C(C)(C)C)c2)CC[C@H](N(O)C(C)=O)NC1 | 1.3 | 240 | 2300 |  | 
2 | CC(=O)N[C@@H](Cc1cc(F)cc(F)c1)[C@H](O)CN[C@@]1(c2cccc(C(C)(C)C)c2)CC[C@H](Nc2cccnc2)NC1 |  | 500 | 9800 |  | 
3 | CC(=O)N[C@@H](Cc1cc(F)cc(F)c1)[C@H](O)CN[C@@]1(c2cccc(C(C)(C)C)c2)CCC(NO)=NC1 | 0.89 | 8.8 | 430 |  | 
4 | CC(=O)N[C@@H](Cc1cc(F)cc(F)c1)[C@H](O)CNC1(c2cccc(C(C)(C)C)c2)CCNCC1 | 710 | 4700 | > 10000 |  | 
5 | CC(=O)N[C@@H](Cc1cc(F)cc(F)c1)[C@H](O)CNC1(c2cccc(C(C)(C)C)c2)CCC(=O)CC1 | 5.6 | 120 | 450 |  | 
6 | CC(=O)N[C@@H](Cc1cc(F)cc(F)c1)[C@H](O)CN[C@@]1(c2cccc(C(C)(C)C)c2)CC[C@H](S(C)(=O)=O)NC1 | 100 | 210 | 2300 |  | 
7 | CC(=O)N[C@@H](Cc1cc(F)cc(F)c1)[C@H](O)CN[C@]1(c2cccc(C(C)(C)C)c2)CC[C@H](O)CC1 | 870 | 9200 | > 10000 |  | 
8 | CS[C@H]1CC[C@@](NC[C@@H](O)[C@H](Cc2cc(F)cc(F)c2)NC(C)=O)(c2cccc(C(C)(C)C)c2)CN1 | 7.5 | 24 | 84 |  | 
9 | CC(=O)N[C@@H](Cc1cc(F)cc(F)c1)[C@H](O)CN[C@]1(c2cccc(C(C)(C)C)c2)CC[C@@H](CO)CC1 | 31 | 38 | 330 |  | 
10 | CC(=O)N[C@@H](Cc1cc(F)cc(F)c1)[C@H](O)CN[C@]1(c2cccc(C(C)(C)C)c2)CC[C@@H](O)CC1 | 11 | 24 | 1400 | 0.3 | 
11 | CC(=O)N[C@@H](Cc1cc(F)cc(F)c1)[C@H](O)CN[C@@]1(c2cccc(C(C)(C)C)c2)CC[C@H](C(F)(F)F)NC1 | 54 | 33 | 28 |  | 
12 | CON[C@H]1CC[C@@](NC[C@@H](O)[C@H](Cc2cc(F)cc(F)c2)NC(C)=O)(c2cccc(C(C)(C)C)c2)CN1 | 7.6 | 100 | 530 |  | 
13 | CO[C@H]1CC[C@@](NC[C@@H](O)[C@H](Cc2cc(F)cc(F)c2)NC(C)=O)(c2cccc(C(C)(C)C)c2)CN1 | 13 | 140 | 130 |  | 
14 | COC(=O)N[C@H]1CC[C@@](NC[C@@H](O)[C@H](Cc2cc(F)cc(F)c2)NC(C)=O)(c2cccc(C(C)(C)C)c2)CN1 | 16 | 240 | 2000 |  | 
15 | CC(=O)N[C@@H](Cc1cc(F)cc(F)c1)[C@H](O)CN[C@@]1(c2cccc(C(C)(C)C)c2)CC[C@H](Nc2ccccn2)NC1 | 21 | 73 | 4400 |  | 
16 | CC(=O)N[C@@H](Cc1cc(F)cc(F)c1)[C@H](O)CN[C@@]1(c2cccc(C(C)(C)C)c2)CC[C@H](NC=O)NC1 | 2.4 | 210 | > 10000 |  | 
17 | CC(=O)N[C@@H](Cc1cc(F)cc(F)c1)[C@H](O)CN[C@@]1(c2cccc(C(C)(C)C)c2)CC[C@H](C#N)NC1 | 37 | 380 | 640 |  | 
18 | CC(=O)N[C@@H](Cc1cc(F)cc(F)c1)[C@H](O)CN[C@@]1(c2cccc(C(C)(C)C)c2)CC[C@H](NO)NC1 | 0.96 | 19 | 3900 |  | 
19 | CC(=O)N[C@@H](Cc1cc(F)cc(F)c1)[C@H](O)CN[C@]1(c2cccc(C(C)(C)C)c2)CC[C@@H](CCO)CC1 | > 1000 | > 10000 | > 10000 |  | 

Row | SMILES | EC50 (HEK293; Homo sapiens, HEK293) [nM] | IC50 (Beta-secretase 1) [nM] | IC50 (Cathepsin D) [nM] | Papp A→B at 2 h, 5 µM [1] [×10⁻⁶ cm/s] | EC50 (HEK293) [nM]
20 | CC(=O)N[C@@H](Cc1cc(F)cc(F)c1)[C@H](O)CN[C@@]1(c2cccc(C(C)(C)C)c2)CC[C@H](NS(C)(=O)=O)NC1 | 5.9 | 400 | 7200 |  | 
21 | CC(=O)N[C@H]1CC[C@@](NC[C@@H](O)[C@H](Cc2cc(F)cc(F)c2)NC(C)=O)(c2cccc(C(C)(C)C)c2)CN1 | 48 | 350 | > 10000 |  | 
22 | CC(=O)N[C@@H](Cc1cc(F)cc(F)c1)[C@H](O)CNC1(c2cccc(C(C)(C)C)c2)CCN(C(N)=O)CC1 | > 1000 | 380 | 4300 |  | 
23 | CC(=O)N[C@@H](Cc1cc(F)cc(F)c1)[C@H](O)CNC1(c2cccc(C(C)(C)C)c2)CCc2nc(C)ncc2C1 (mixture of isomers) | 15 | 93 | 910 |  | 
24 | CC(=O)N[C@@H](Cc1cc(F)cc(F)c1)[C@H](O)CNC1(c2cccc(C(C)(C)C)c2)CCCNC1 (mixture of isomers) | > 1000 | > 10000 | 2330 |  | 
25 | CC(=O)N[C@@H](Cc1cc(F)cc(F)c1)[C@H](O)CNC1(c2cccc(C(C)(C)C)c2)CCC(=O)NC1 (mixture of isomers) | 76 | 47 | 180 |  | 
26 | CC(=O)N[C@@H](Cc1cc(F)cc(F)c1)[C@H](O)CNC1(c2cccc(C(C)(C)C)c2)CCCN(C(=O)OCc2ccccc2)C1 (mixture of isomers) | 780 | 860 | 3.3 |  | 
27 | CC(=O)N[C@@H](Cc1cc(F)cc(F)c1)[C@H](O)CNC1(c2cccc(C(C)(C)C)c2)CCCN(C(N)=O)C1 (mixture of isomers) | 210 | 330 | 90 |  | 
28 | CC(=O)N[C@@H](Cc1cc(F)cc(F)c1)[C@H](O)CNC1(c2cccc(C(C)(C)C)c2)CCOCC1 (mixture of isomers) |  | 61 | 230 | 8.1 | 
29 | CC(=O)N[C@@H](Cc1cc(F)cc(F)c1)[C@H](O)CNC1(c2cccc(C(C)(C)C)c2)CCCC1 (mixture of isomers) | > 100 | 220 | 130 |  | 
30 | CC(=O)N[C@@H](Cc1cc(F)cc(F)c1)[C@H](O)CNC1(c2cccc(-n3cccn3)c2)CCOC1 (mixture of isomers) | > 1000 | 2400 | 4900 |  | 
31 | CC(=O)N[C@@H](Cc1cc(F)cc(F)c1)[C@H](O)CNC1(c2cccc(C(C)(C)C)c2)CCCN(O)C1 (mixture of isomers) | 45 | 400 | 670 |  | 
32 | CC(=O)N[C@@H](Cc1cc(F)cc(F)c1)[C@H](O)CNC1(c2cccc(-n3cccn3)c2)CCCOC1 (mixture of isomers) | 91 | 270 | 170 |  | 
33 | CC(=O)N[C@@H](Cc1cc(F)cc(F)c1)[C@H](O)CNC1(c2cccc(C(C)(C)C)c2)CCCN(C(C)=O)C1 (mixture of isomers) | 560 | 1300 | 410 |  | 
34 | CC(=O)N[C@@H](Cc1cc(F)cc(F)c1)[C@H](O)CNC1(c2cccc(C(C)(C)C)c2)CCc2n[nH]cc2C1 (mixture of isomers) | 2.1 |  | 300 | 1.6 | 
35 | CC(=O)N[C@@H](Cc1cc(F)cc(F)c1)[C@H](O)CNC1(c2cccc(C(C)(C)C)c2)CCc2nc(N)ncc2C1 (mixture of isomers) | 1.8 | 14 | 210 |  | 
36 | CC(=O)N[C@@H](Cc1cc(F)cc(F)c1)[C@H](O)CNC1(c2cccc(C(C)(C)C)c2)CCNC(=O)C1 (single isomer, unassigned) | 21 | 18 | 330 |  | 
37 | CC(=O)N[C@@H](Cc1cc(F)cc(F)c1)[C@H](O)CNC1(c2cccc(C(C)(C)C)c2)CCNC(=O)C1 (stereo in doubt; 16) |  | 19 | 1100 |  | 23
